Patent US20250082760A1 (priority 2020, published 2025)
Structures can show the parent of a compound that is named as a salt.

Assays:
[1] = stability (degradation test) in acidified plasma; type: in vitro ADME, rat; details: for Sample Peak Average: rat, 5 μmol/ml
Procedure: • a: Compound 5 prepared in Example 5 was dissolved in purified water to prepare solution A with a concentration of 10 mg/ml; 150 μl of solution A was added to 660 μl of pre-warmed plasma (37° C.), and the pH was adjusted with 0.1% acetic acid to dissolve the sample clear to obtain solution B; • b: Solution B (5 μmol/ml) was stirred in a water bath at 37° C. for a certain period of time (1 min, 2 min, 4 min, 8 min, 16 min, 30 min, 1 h, 2 h, 4 h) and 50 μl was sampled at each time point; • c: 50 μl of the sampled solution was added to 950 μl methanol (0.1% AcH) to precipitate plasma proteins, resulting in mixture C. • d: The mixture C was vortexed for 1 s, centrifuged at 12000 r for 3 min, and the supernatant was taken for testing.
(§1) Liquid phase detection: take 10 μl of the supernatant after the above centrifugation into a sample for measurement.

[2] = stability (degradation test) in fresh rat plasma; type: in vitro ADME; details: for Sample Peak Average: rat, 5 μmol/ml
Procedure: Experimental sample: compound 5 prepared in Example 5; 5% glucose (Xi′an Jingxi Shuanghe Pharmaceutical Co., Ltd.); rat plasma (source: Animal Center, Department of Medicine, Xi′an Jiaotong University) Fresh plasma sample preparation: • a: Compound 5 prepared in Example 5 was dissolved in purified water to prepare solution A with a concentration of 10 mg/ml; 150 μl of solution A was added to 660 μl of preheated plasma (37° C.) to obtain solution B; • b: Solution B (5 μmol/ml) was stirred in a 37° C. water bath for a certain period of time (1 min, 2 min, 4 min, 8 min, 16 min, 30 min, 1 h, 2 h, 4 h) and 50 μl was sampled at each time point; • c: 50 μl of sampled solution) was added to 950 μl of methanol (0.1% AcH) to precipitate plasma proteins, resulting in mixture C; • d: The mixture C was vortexed for 1 s, centrifuged at 12000 r for 3 min, and the supernatant was taken for testing.
as §1

[3] = test system: nitroglycerin-induced migraine mouse model; assay: nitroglycerin-induced migraine mouse model (hot plate, head scratching, body weight); type: in vivo, ICR mice; details: for hind feet licking time (hot plate) / total number of head scratching times: reference model group, day 5; for hind feet licking time (hot plate): 45 min after modeling, p<0.05
Procedure: 48 ICR mice weigt 18-22 g, half male and half female; purchased from Qinglongshan Animal Breeding Farm, Jiangning District, Nanjing City, certificate: SCXK (Su) 2017-0001; rearing conditions: room temperature 18-20° C., same sex rearing in separate cages, 12 hours of light, regular ventilation, conventional full-price solid feed feeding, bedding changed every two days; 48 mice were randomly divided into 6 groups (blank control group, model group, positive drug group, low-dose group of test drug, medium-dose group of test drug, high-dose group of test drug), 8 animals (4♀4) in each group, marked No. 1-8 with picric acid respectively.
Solvent: 0.5% CMC-Na aqueous solution; positive drug: flunarizine hydrochloride (sibelin) capsules (specification 5 mg), take the contents in a mortar, add 100 ml of 0.5% CMC-Na solution while grinding, placed in EP tubes for standby; Test drug (compound 5): dissolve into 5, 10, 20 mg/ml solutions with distilled water respectively, and placed in EP tubes for standby; Modeling drug (nitroglycerin): take 2 nitroglycerin tablets (specification 5 mg), crushed into powder, placed in EP tubes, added 500 μl of propylene glycol with a pipette and shaken well, standing still for 5 minutes, added 9.5 ml of normal saline, shaken well and standing still overnight, take the supernatant (containing nitroglycerin) 1 mg/ml) for use.
Except for the first group (blank control group), animals in other groups were subcutaneously injected with 10 mg/kg (0.2 ml/20 g) of nitroglycerin back-up solution 1 h after each administration (modeling once every other day on the 1st, 3rd, and 5th days).
The first group was the blank control group, which was given 0.5% CMC-Na 0.2 ml/20 g by gavage; the second group was the model group, which was given 0.5% CMC-Na by gavage; the third group was the positive drug group, which was given by gavage Flunarizine hydrochloride (sibilin) 1 mg/kg; the fourth group was the low-dose group of test drug, which was given 100 mg/kg of compound 5 by gavage; the fifth group was the medium-dose group of test drug, which was given 200 mg/kg of compound 5 by gavage; the sixth group was the high-dose group of test drug, which was given 400 mg/kg of compound 5 by gavage. Dosing every other day on days 1, 3, and 5.
In behavioral studies, mice scratching their heads for more than 5 times or scratching their faces with forelimbs for more than 5 times were identified as migraine-related behaviors caused by modeling, with a record of scratching their heads once; in the hot plate method, mice lifted their hind limbs and licked their hind feet as the observation indicator, record the time immediately.

## CC(C)c1cccc(C(C)C)c1OC(=O)CC1(CN(C)C)CCCCC1 [Compound 5, 2,6-diisopropylphenyl 2-(1-((dimethylamino)methyl)cyclohexyl)acetate hydrochloride]
physchem
  logP: 1.37
[1]; plasma acidified with 0.1% acetic acid, 37° C., up to 2 h
  degradation / stability in acidified plasma: not significantly degraded
[1]; 1 min
  Sample Peak Average: 196752060
[1]; 2 min
  Sample Peak Average: 189140125
[1]; 4 min
  Sample Peak Average: 184526452
[1]; 8 min
  Sample Peak Average: 182379068
[1]; 16 min
  Sample Peak Average: 176475001
[1]; 30 min
  Sample Peak Average: 179508039
[1]; 1 h
  Sample Peak Average: 175087504
[1]; 2 h
  Sample Peak Average: 171193983
[2]; fresh rat plasma, 37° C., up to 4 h
  degradation / stability in fresh plasma: not significantly degraded
[2]; 1 min
  Sample Peak Average: 203062103
[2]; 2 min
  Sample Peak Average: 181706084
[2]; 4 min
  Sample Peak Average: 161303805
[2]; 8 min
  Sample Peak Average: 178769005
[2]; 16 min
  Sample Peak Average: 189298224
[2]; 1 h
  Sample Peak Average: 230407155
[2]; 2 h
  Sample Peak Average: 260803581
[2]; 4 h
  Sample Peak Average: 246523592
[3]; by gavage on days 1, 3, 5, compound 5 100, 200, 400 mg/kg
  alleviation of nitroglycerin-induced migraine in mice: effectively alleviate
[3]; mouse, in vivo
  weight gain of mice: no significant effect
[3]; high dose 400 mg/kg gavage
  hind feet licking time (hot plate): significant difference
  total number of head scratching times: significant difference (p<0.05)
[3]; low dose 100 mg/kg gavage
  total number of head scratching times: extremely significant (p<0.01)
[3]; medium dose 200 mg/kg gavage
  total number of head scratching times: extremely significant (p<0.01)
[3]; middle dose 200 mg/kg gavage
  hind feet licking time (hot plate): significant difference
